The results in this text go back to patent publication US20110301200A1, “THYROID RECEPTOR LIGANDS” (CADILA HEALTHCARE LIMITED, priority 2008, published 2011).

One test has as its target T1, TR-β (Homo sapiens, UniProt P10828).
T1 sequence (P10828 1-461): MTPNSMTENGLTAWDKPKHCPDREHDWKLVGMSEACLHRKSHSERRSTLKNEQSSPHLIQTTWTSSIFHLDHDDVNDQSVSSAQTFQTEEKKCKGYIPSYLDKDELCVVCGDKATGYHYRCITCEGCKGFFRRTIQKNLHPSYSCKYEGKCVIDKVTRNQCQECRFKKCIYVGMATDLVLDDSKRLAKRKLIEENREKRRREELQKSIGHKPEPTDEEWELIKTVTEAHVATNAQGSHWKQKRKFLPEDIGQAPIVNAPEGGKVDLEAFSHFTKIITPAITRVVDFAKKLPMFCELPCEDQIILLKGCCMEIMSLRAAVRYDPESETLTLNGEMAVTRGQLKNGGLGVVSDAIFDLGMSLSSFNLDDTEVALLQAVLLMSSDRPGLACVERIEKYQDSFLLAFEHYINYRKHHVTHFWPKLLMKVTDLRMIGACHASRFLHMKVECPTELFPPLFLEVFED
Briefly: In vitro TR-β activity (in-house protocol). It counts as cell-based. The following applies: for fold induction at 0.001 µM: Conc. 1 nM; for fold induction at 0.001 µM / fold induction at 0.01 µM / fold induction at 0.1 µM / fold induction at 1 µM: read-out: TR-β Fold Induction w.r.t T3(100 nm); for fold induction at 0.01 µM: Conc. 10 nM; for fold induction at 0.1 µM: Conc. 100 nM; for fold induction at 1 µM: Conc. 1000 nM. How it is done:
(§1) In vitro TR-α & TR-β activities were determined as per in-house protocols and the results of representative compounds are provided in tables 1 & 2 below as a proof of the efficacies of the novel class of compounds disclosed above.

The target of a further test is T2, TR-α (Homo sapiens, UniProt P10827).
T2 sequence (P10827 1-410 isoform P10827-2): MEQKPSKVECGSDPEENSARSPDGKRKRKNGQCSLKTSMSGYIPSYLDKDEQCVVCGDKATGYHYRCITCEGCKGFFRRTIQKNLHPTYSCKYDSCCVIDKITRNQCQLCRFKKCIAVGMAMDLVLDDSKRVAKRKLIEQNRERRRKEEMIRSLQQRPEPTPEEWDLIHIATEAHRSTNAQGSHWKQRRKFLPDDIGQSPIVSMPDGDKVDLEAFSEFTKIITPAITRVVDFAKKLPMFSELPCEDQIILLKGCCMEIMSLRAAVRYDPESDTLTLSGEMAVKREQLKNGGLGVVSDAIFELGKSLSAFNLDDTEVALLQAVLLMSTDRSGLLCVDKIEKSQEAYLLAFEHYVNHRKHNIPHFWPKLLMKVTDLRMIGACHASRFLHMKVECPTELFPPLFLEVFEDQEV
Briefly: In vitro TR-α activity (in-house protocol). The conditions noted are these: for fold induction at 0.001 µM: Conc. 1 nM; for fold induction at 0.001 µM / fold induction at 0.01 µM / fold induction at 0.1 µM / fold induction at 1 µM: read-out: TR-α Fold Induction w.r.t T3(100 nm); for fold induction at 0.01 µM: Conc. 10 nM; for fold induction at 0.1 µM: Conc. 100 nM; for fold induction at 1 µM: Conc. 1000 nM. It counts as cell-based. Here is the method: as §1

Turning to `CC(ON=Cc1cc(Br)c(Oc2ccc(O)c(C(C)(C)C)c2)c(Br)c1)C(=O)O` (stereo not shown) [Example 24, 2-(((3,5-dibromo-4-(3-(tert-butyl)-4-hydroxyphenoxy)benzylidene)amino)oxy)propanoic acid], at TR-β, the fold induction at 0.001 µM came out at 16.6, the fold induction at 0.01 µM is 48.9, the fold induction at 0.1 µM came out at 105 and the fold induction at 1 µM is 86.1. For the same molecule, at TR-α, the fold induction at 0.001 µM was 18.5, the fold induction at 0.01 µM was 52.1, the fold induction at 0.1 µM came out at 102 and the fold induction at 1 µM came out at 121.

In the case of `CC(ON=Cc1cc(Br)c(Oc2ccc(O)c(C(O)c3ccc(Cl)cc3)c2)c(Br)c1)C(=O)O` (stereo not shown) [Example 27, 2-(((3,5-dibromo-4-(3-((4-chlorophenyl)(hydroxy)methyl)-4-hydroxyphenoxy)benzylidene)amino)oxy)propanoic acid], on TR-β, the fold induction at 0.001 µM is 10.1, the fold induction at 0.01 µM came out at 16.4, the fold induction at 0.1 µM came out at 29.1 and the fold induction at 1 µM is 107. At TR-α, the fold induction at 0.001 µM is 13.2, the fold induction at 0.01 µM was found to be 14.4, the fold induction at 0.1 µM came to 45.2 and the fold induction at 1 µM was 76.4.

On to `CCc1cc(Oc2c(Br)cc(C=NOC(C)C(=O)O)cc2Br)ccc1O` (stereo not shown) [Example 25, 2-(((3,5-dibromo-4-(3-ethyl-4-hydroxyphenoxy)benzylidene)amino)oxy)propanoic acid], for which, at TR-β, the fold induction at 0.001 µM amounted to 11.5, the fold induction at 0.01 µM stood at 37.1, the fold induction at 0.1 µM is 59.9 and the fold induction at 1 µM amounted to 86.7. For the same molecule, at TR-α, the fold induction at 0.001 µM worked out at 13.8, the fold induction at 0.01 µM was found to be 28.5, the fold induction at 0.1 µM amounted to 79 and the fold induction at 1 µM came to 134.

On to `CCN(CC)S(=O)(=O)c1cc(Oc2c(Br)cc(C=NOC(C)C(=O)O)cc2Br)ccc1O` (stereo not shown) [Example 38, 2-(((3,5-dibromo-4-(3-(N,N-diethylsulfamoyl)-4-hydroxyphenoxy)benzylidene)amino)oxy)propanoic acid], for which, at TR-β, the fold induction at 0.001 µM amounted to 11.8, the fold induction at 0.01 µM turned out to be 13.6, the fold induction at 0.1 µM is 25 and the fold induction at 1 µM worked out at 82.2. At TR-α, the fold induction at 0.001 µM came out at 10.1, the fold induction at 0.01 µM amounted to 16.4, the fold induction at 0.1 µM came to 25.3 and the fold induction at 1 µM stood at 76.2.

Consider `CCC(C)c1cc(Oc2c(Br)cc(C=NOC(C)(C)C(=O)O)cc2Br)ccc1O` (stereo not shown) [Example 15, 2-(((3,5-dibromo-4-(3-(sec-butyl)-4-hydroxyphenoxy)benzylidene)amino)oxy)-2-methyl propanoic acid], for which, at TR-β, the fold induction at 0.001 µM is 23, the fold induction at 0.01 µM stood at 84.3, the fold induction at 0.1 µM was found to be 118 and the fold induction at 1 µM was found to be 72.3. For the same molecule, at TR-α, the fold induction at 0.001 µM was determined as 35.7, the fold induction at 0.01 µM is 77.7, the fold induction at 0.1 µM was found to be 119 and the fold induction at 1 µM was 123.

`O=C(O)CON=Cc1cc(Br)c(Oc2ccc(O)c(C(O)c3ccc(Cl)cc3)c2)c(Br)c1` (stereo not shown) [Example 29, 2-(((3,5-dibromo-4-(3-((4-chlorophenyl)(hydroxy)methyl)-4-hydroxyphenoxy)benzylidene)amino)oxy)acetic acid]: on TR-β, the fold induction at 0.001 µM worked out at 10.6, the fold induction at 0.01 µM worked out at 12.1, the fold induction at 0.1 µM amounted to 33.5 and the fold induction at 1 µM turned out to be 68.5. Further, at TR-α, the fold induction at 0.001 µM was 17.6, the fold induction at 0.01 µM was determined as 21.2, the fold induction at 0.1 µM was 29.9 and the fold induction at 1 µM worked out at 64.2.

Regarding `CCC(C)c1cc(Oc2c(Br)cc(C=NOCC(=O)O)cc2Br)ccc1O` (stereo not shown) [Example 6, 2-(((3,5-dibromo-4-(3-(sec-butyl)-4-hydroxyphenoxy)benzylidene)amino)oxy)acetic acid], at TR-β, the fold induction at 0.001 µM amounted to 15.9, the fold induction at 0.01 µM turned out to be 37.1, the fold induction at 0.1 µM was 84 and the fold induction at 1 µM came to 74.6. On TR-α, the fold induction at 0.001 µM came to 11.6, the fold induction at 0.01 µM is 39.8, the fold induction at 0.1 µM was determined as 60.6 and the fold induction at 1 µM turned out to be 64.9.

With `O=C(O)CON=Cc1cc(Br)c(Oc2ccc(O)c(Cc3ccccc3)c2)c(Br)c1` [Example 9, 2-(((4-(3-benzyl-4-hydroxyphenoxy)-3,5-dibromobenzylidene)amino)oxy)acetic acid], on TR-β, the fold induction at 0.001 µM was determined as 11.5, the fold induction at 0.01 µM was 17.6, the fold induction at 0.1 µM is 60.2 and the fold induction at 1 µM was 98.8. Moreover, at TR-α, the fold induction at 0.001 µM amounted to 10.7, the fold induction at 0.01 µM was determined as 10.7, the fold induction at 0.1 µM was 23.8 and the fold induction at 1 µM is 64.8.

The EC50 is the concentration needed to bring the measured effect to its halfway point. High values mean a need for much substance, low ones an effect from little substance. Take `O=C(O)CON=Cc1cc(Br)c(Oc2ccc(O)c(-c3ccccc3)c2)c(Br)c1` [Example 7, 2-(((3,5-dibromo-4-((6-hydroxy-[1,1′-biphenyl]-3-yl)oxy)benzylidene)amino)oxy)acetic acid]: the figures for the half-maximal effective concentration (EC50) at TR-β and at TR-α were 2.9 nM and 5.2 nM, respectively.

Turning to `CC(ON=Cc1cc(Cl)c(Oc2ccc(O)c(C(C)C)c2)c(Cl)c1)C(=O)O` (stereo not shown) [Example 8, 2-(((3,5-dichloro-4-(4-hydroxy-3-isopropylphenoxy)benzylidene)amino)oxy)propanoic acid], at TR-β, the fold induction at 0.001 µM came out at 16.3, the fold induction at 0.01 µM turned out to be 45.4, the fold induction at 0.1 µM was 85.2 and the fold induction at 1 µM is 89. On TR-α, the fold induction at 0.001 µM was 12.4, the fold induction at 0.01 µM was 29.5, the fold induction at 0.1 µM came to 75 and the fold induction at 1 µM worked out at 76.6.

With `CCC(C)c1cc(Oc2c(Br)cc(C=NOC(C(=O)O)c3ccccc3)cc2Br)ccc1O` (stereo not shown) [Example 18, 2-(((3,5-dibromo-4-(3-(sec-butyl)-4-hydroxyphenoxy)benzylidene)amino)oxy)-2-phenylacetic acid], at TR-β, the fold induction at 0.001 µM turned out to be 13.8, the fold induction at 0.01 µM was determined as 20.8, the fold induction at 0.1 µM was determined as 69.5 and the fold induction at 1 µM was 122. Moreover, at TR-α, the fold induction at 0.001 µM came to 15.5, the fold induction at 0.01 µM is 36, the fold induction at 0.1 µM is 77 and the fold induction at 1 µM turned out to be 90.4.

With `O=C(O)CON=Cc1cc(Br)c(Oc2ccc(O)c(C(=O)c3ccc(Br)cc3)c2)c(Br)c1` [Example 31, 2-(((3,5-dibromo-4-(3-(4-bromobenzoyl)-4-hydroxyphenoxy)benzylidene)amino)oxy)acetic acid], on TR-β, the fold induction at 0.001 µM was found to be 11.8, the fold induction at 0.01 µM amounted to 14.3, the fold induction at 0.1 µM was determined as 41.5 and the fold induction at 1 µM is 50.3. Moreover, on TR-α, the fold induction at 0.001 µM stood at 13.7, the fold induction at 0.01 µM worked out at 17.2, the fold induction at 0.1 µM amounted to 38.3 and the fold induction at 1 µM worked out at 39.2.

`CC(ON=Cc1cc(Br)c(Oc2ccc(O)c(S(=O)(=O)N3CCCCC3)c2)c(Br)c1)C(=O)O` (stereo not shown) [Example 36, 2-(((3,5-dibromo-4-(4-hydroxy-3-(piperidin-1-ylsulfonyl)phenoxy)benzylidene)amino)oxy)propanoic acid]: on TR-β, the fold induction at 0.001 µM worked out at 11, the fold induction at 0.01 µM was 19.7, the fold induction at 0.1 µM was determined as 58.2 and the fold induction at 1 µM was found to be 107. Besides, on TR-α, the fold induction at 0.001 µM came to 14.1, the fold induction at 0.01 µM came to 15.4, the fold induction at 0.1 µM was determined as 57.8 and the fold induction at 1 µM came to 128.

In the case of `CC(ON=Cc1cc(Br)c(Oc2ccc(O)c(C(=O)c3cccc(Cl)c3)c2)c(Br)c1)C(=O)O` (stereo not shown) [Example 30, 2-(((3,5-dibromo-4-(3-(3-chlorobenzoyl)-4-hydroxyphenoxy)benzylidene)amino)oxy)propanoic acid], the figures for the EC50 at TR-β and at TR-α were 166 nM and 143 nM, respectively.
